In publication PMC2873968, “Novel protein kinase D inhibitors cause potent arrest in prostate cancer cell growth and motility” (BMC Chemical Biology, 2010):
pIC50: −log10 of the molar value.

Columns and labels:
PKCδ = molecular target: T1, PKCδ (Homo sapiens, UniProt Q05655); assay: In vitro radiometric PKC kinase assay; assay type: biochemical
T1 construct: purchased Enzo Life Sciences
Description: (§1) The PKC in vitro kinase assays were performed as described previously.
To determine whether the novel analogs retained this specificity, we tested the compounds against their ability to inhibit PKCα, -βI, -δ, and CAMKIIα in in vitro radiometric kinase activity assays.
Inhibition of PKCα (A), PKCβI (B), PKCδ (C), or CAMKIIα (D) by each of the 5 analogs was determined at 100 nM, 1 μM, and 10 μM concentrations. […] Data are the mean ± S.E.M. of three independent experiments. Statistical significance was determined using the unpaired t-test. ns, not statistically significant; *, p < 0.05; **, p < 0.01; ***, p < 0.001.

PKCα = molecular target: T2, PKCα (Homo sapiens, UniProt P17252); assay: In vitro radiometric PKC kinase assay; assay type: biochemical
T2 construct: purchased Cell Signaling Technology and Calbiochem
Description: as §1
(§2) To determine whether the novel analogs retained this specificity, we tested the compounds against their ability to inhibit PKCα, -βI, -δ, and CAMKIIα in in vitro radiometric kinase activity assays. All analogs were poor inhibitors of PKCα and PKCβI, with only slight (< 50%) inhibitory activity at 10 μM concentration (Fig. 5A and 5B).
(§3) Inhibition of PKCα (A), PKCβI (B), PKCδ (C), or CAMKIIα (D) by each of the 5 analogs was determined at 100 nM, 1 μM, and 10 μM concentrations. In the PKC assays, the potent PKC inhibitor GF109203X was used as a control. Data are the mean ± S.E.M. of three independent experiments. Statistical significance was determined using the unpaired t-test. ns, not statistically significant; *, p < 0.05; **, p < 0.01; ***, p < 0.001.

PKCβI = molecular target: T3, PKCβI (Homo sapiens, UniProt P05771); assay: In vitro radiometric PKC kinase assay; assay type: biochemical
T3 construct: purchased Cell Signaling Technology
Description: as §1, §2, §3

PKD = conditions: reported values, no reference given; cited from earlier work

T3 sequence (P05771 whole entry): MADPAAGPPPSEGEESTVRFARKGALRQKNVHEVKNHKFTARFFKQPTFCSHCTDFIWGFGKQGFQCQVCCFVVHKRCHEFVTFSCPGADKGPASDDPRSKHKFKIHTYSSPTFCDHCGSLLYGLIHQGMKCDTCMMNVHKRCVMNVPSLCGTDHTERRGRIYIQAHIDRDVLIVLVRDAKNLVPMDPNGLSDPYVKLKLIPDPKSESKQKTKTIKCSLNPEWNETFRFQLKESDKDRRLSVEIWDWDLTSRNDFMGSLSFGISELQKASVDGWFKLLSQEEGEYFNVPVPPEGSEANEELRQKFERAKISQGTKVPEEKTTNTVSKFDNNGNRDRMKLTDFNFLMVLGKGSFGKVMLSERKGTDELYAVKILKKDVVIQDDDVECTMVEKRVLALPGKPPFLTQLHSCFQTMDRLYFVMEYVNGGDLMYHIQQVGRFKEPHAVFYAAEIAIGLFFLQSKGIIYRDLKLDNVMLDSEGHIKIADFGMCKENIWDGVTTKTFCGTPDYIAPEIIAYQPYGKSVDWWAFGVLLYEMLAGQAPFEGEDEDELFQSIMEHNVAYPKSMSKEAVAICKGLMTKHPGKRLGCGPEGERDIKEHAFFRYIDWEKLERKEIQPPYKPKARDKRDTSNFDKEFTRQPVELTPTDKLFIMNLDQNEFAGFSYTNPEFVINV
T1 sequence (Q05655 whole entry): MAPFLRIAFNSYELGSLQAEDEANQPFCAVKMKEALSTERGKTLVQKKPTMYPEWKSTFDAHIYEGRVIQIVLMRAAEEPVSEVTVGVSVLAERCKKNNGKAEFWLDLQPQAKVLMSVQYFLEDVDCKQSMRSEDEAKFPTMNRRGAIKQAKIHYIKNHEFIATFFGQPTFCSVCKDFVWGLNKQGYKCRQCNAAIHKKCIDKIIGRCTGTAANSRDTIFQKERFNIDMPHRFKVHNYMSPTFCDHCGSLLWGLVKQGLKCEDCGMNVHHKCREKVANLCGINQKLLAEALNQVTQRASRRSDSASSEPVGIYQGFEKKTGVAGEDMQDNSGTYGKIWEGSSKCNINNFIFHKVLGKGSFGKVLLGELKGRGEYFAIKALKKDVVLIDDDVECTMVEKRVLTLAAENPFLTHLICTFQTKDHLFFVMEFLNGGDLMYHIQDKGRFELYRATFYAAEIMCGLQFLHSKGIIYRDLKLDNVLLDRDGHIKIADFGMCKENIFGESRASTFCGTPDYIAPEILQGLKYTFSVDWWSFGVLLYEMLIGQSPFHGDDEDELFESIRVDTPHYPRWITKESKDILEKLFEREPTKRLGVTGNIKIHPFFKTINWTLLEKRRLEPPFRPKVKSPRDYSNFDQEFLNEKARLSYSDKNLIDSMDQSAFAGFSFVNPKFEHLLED

Structure (SMILES) | inhibition of PKCδ (in words) (PKCδ) | inhibition of PKCα (in words) (PKCα) | inhibition of PKCβI (in words) (PKCβI) | pIC50 (PKD)
CN(C)CCCn1cc(C2=C(c3c[nH]c4ccccc34)C(=O)NC2=O)c2ccccc21 [GF109203X] | strong inhibition | strong inhibition | strong inhibition | –
COC(=O)[C@@]1(O)C[C@H]2O[C@]1(C)n1c3ccccc3c3c4c(c5c6ccccc6n2c5c31)C(=O)NC4 [Compound K252a] | – | – | – | 8.15
Cn1c2ccccc2c2c3c(c4c5ccccc5n(CCC#N)c4c21)CNC3=O [Gö6976] | – | – | – | 7.70
